Assay results published in patent US20220196635A1, “Fibrosis Assay” (Georgia Tech Research Corporation, priority 2020, published 2022).

Legend:
Assay type in all cases: cell-based
[1] = system: human primary lung fibroblasts (NHLF, IPF) in fibrin micro-scaffolds; assay: Contracting scar-in-a-drop fibroplasia assay (final projected area of cell-ECM spheroids)
Experimental: Human primary lung fibroblasts were used in all experiments presented in this paper. Unless otherwise noted, experiments utilized normal human lung fibroblasts (NHLF B lot #0000580583; Lonza) from a person with a history of smoking. For experiments evaluating donor variability, the following cells were utilized: NHLF A (NHLF lot #0000608197; Lonza) from a person, IPF A (IPF lot #0000627840; Lonza) from a person, and IPF B (IPF lot #6F5002; Lonza) from a person. All cells were cultured in fibroblast growth media (FGM; Lonza). Cells were passaged at 80-90% confluence and were sub-cultured in 1:3 ratios by trypsinization. When at the desired confluence, cells were washed with PBS and 0.05% trypsin solution was added to the flask. Cells were incubated for 2 min, and then harvested and centrifuged ([…], 5 min) in a conical tube. The supernatant was aspirated and the cell pellet was re-suspended in FBS-free culture media. When used in fibrin degradation experiments, cells were re-suspended at 2× the final desired concentration (2500 cells/ul unless otherwise indicated). To promote collagen production and contraction in addition to fibrin degradation, serum (bovine or human) were added at 2% or higher up to about 10%. Higher cell densities (about 2500 cells/ul and higher up to about 10,000 cells/ul) also promote collagen production. All experiments were conducted with cells at or below passage 8 except for high passage experiments conducted at passage 12. In all experiments, media was changed every 48 hours and any media additives (plasminogen, TGF-β1, drugs, etc.,) were included.
ATPS printing of fibrin micro-scaffolds has previously described above. Briefly, working solutions of PEG with 0.1 U/mL of thrombin were warmed to 37° C. and pipetted into a 96-well plate. For production of droplets, fibrinogen-DEX solutions with cell suspension were maintained at 37° C. and 4 μl per assay (unless otherwise noted) was pipetted directly into the PEG-thrombin media using a semi-automated repeater pipette (Repeater E3X; Eppendorf). Following dispensing of the DEX phase, the plates were placed in an ambient air incubator at 37° C. for 30 min to allow the thrombin to enzymatically crosslink the fibrinogen into a fibrin matrix (FIG. 6A). The PEG-enriched media was removed using a 12-channel micropipette and replaced with 100 μl of fully supplemented media in each well. When applicable, this media addition was supplemented with stimuli as detailed in example 17 below. For the duration of each experiment, assay plates were imaged every 2 hours at 4× with an automated cell culture monitoring system (Incucyte S3; Sartorius). As the assay proceeded, the fibroblasts progressively remodeled the fibrin scaffold as illustrated in FIG. 6C.
After each experiment, the final projected areas of the cell-ECM spheroids were determined from brightfield images taken at the final time point using a benchtop imaging system (2× objective; EVOS M7000; ThermoFisher). These images were then segmented through a process of pixel classification, thresholding, and morphological filtering in order to isolate the cell-ECM construct area from the background.
Pixel classification implemented Ilastic, a freely available image classification tool developed by the European Molecular Biology Laboratory. Ilastik's pixel classification utility implements a random forest classifier for quick and robust segmentation. In order to train the classifier, 10 characteristic images were selected to include different stages of ECM remodeling. In this step, each individual pixel is assigned a probability for belonging to layers for the background or the cell-ECM construct. Ilastik enables interactive training of the random forest classifier via user annotations of the training images. […]

[2] = system: normal human lung fibroblasts (NHLF); assay: Picrosirius red histology of contracted cell-ECM spheroids (mean fluorescence intensity); details: different TGF-β1 conditions and control, 12 days of culture
Experimental: Contracted cell-ECM spheroids were harvested after 9-12 days of culture. These structures were prepared for histology, stained, and imaged as previously described for cultured spheroids. Briefly, the spheroids were washed with PBS and fixed in 4% paraformaldehyde (Alfa Aesar) for 1 hour at room temperature. The structures were stained with 0.5% methylene blue solution in PBS for 10 minutes at room temperature to aid in visualization during histology. Samples were placed in a cryomold containing optimal cutting temperature (OCT) compound, and flash frozen in cooled isopentane. 10 um sections were obtained using a CryoStar NX70 cryostat (Thermo Fisher Scientific).
Upon warming to room temperature, the sections were washed with PBS, permeabilized with 0.2% Triton-X 100, and blocked for 1 hour at room temperature with 4% bovine serum albumin (BSA) (Millipore Sigma). Sections were stained for 30 min at room temperature with Sirius red (0.1% of Sirius red in saturated aqueous picric acid), as previously described for collagen bundle staining. The samples were then washed with PBS, stained with DAPI for 15 minutes at room temperature, and coverslipped. […] Fluorescence was detected using Texas Red channel settings as previously described. Mean fluorescence intensity was quantified in ImageJ as the average pixel intensity within the sections.

[3] = system: normal human lung fibroblasts (NHLF); assay: mRNA quantification by qPCR in fibrin remodeling assay
Experimental: RNA extraction and qPCR: Cells from 12 wells at the indicated time points were pooled together per condition and lysed with 350 μl of RLT lysis buffer. RNA was extracted using a RNeasy Mini Kit (Qiagen, #74104) and was performed according to the manufacturer's instructions. RNA sample concentration was measured using a NanoDrop OneC Spectrophotometer (Thermo Fisher Scientific). A High-Capacity RNA-to-cDNA Kit (Applied Biosystems, #4387406) was used for reverse transcription; 400 ng of RNA for each sample was mixed with 10 μl primer, 1 μl reverse transcriptase enzyme and nuclease-free water to bring the final reaction volume to 20 μl. The reaction was performed for 60 minutes at 37° C., followed by 5 minutes at 95° C. using a Veriti Thermal Cycler (Applied Biosystems). qPCR was performed using a QuantStudio 3 Real-Time PCR System (Applied Biosystems). Each reaction consisted of 1 μl cDNA, 10 μl TaqMan Fast advanced master mix (Applied Biosystems, #4444556), 1 μl primer, and 6 μl nuclease-free water. TaqMan primers (Applied Biosystems) for smooth muscle actin (ACTA2, Hs00426835_g1), plasminogen activator (PLAT, Hs00263492_m1), Plasminogen activator inhibitor-1 (SERPINE1, Hs00167155_m1), collagen type I (COL1A1, Hs00164004_m1), plasminogen activator (PLAU, Hs01547054_m1), and Ki67 (MKI67, Hs01032443_m1) were utilized. The QuantStudio 3 was programmed with a 2-minute hold at 95° C., followed by 40 cycles of 95° C. for 1 second and 60° C. for 20 seconds. Each sample was run with biological triplicates. The relative gene expression was calculated using the […], with glyceraldehyde-3-phosphate dehydrogenase as the housekeeping gene (GAPDH, Hs02786624_g1). Fold changes were normalized with respect to the time zero timepoint with no TGF-β1 stimulation and are reported as the mean with the error bars representing the minimum and maximum values.

[4] = TGF-β1 stimulation compared to the control time series

TGF-β1: Human Recombinant TGF-β1 (Peprotech), pro-fibrotic, anti-fibrinolytic stimulus
projected area of the final contracted cell-ECM spheroid ([1]; TGF-β1 0, 0.5, 2 ng/mL, NHLF): significant dose-dependent increase
contraction of cell-ECM construct ([1]; TGF-β1 10 ng/mL (highest concentration)): did not contract within the duration of the experiment
50% contraction time ([1]; TGF-β1 stimulation, kernel density estimates (FIG. 12A)): increases in both 50% contraction time and final assay area
mean fluorescence intensity (MFI) of picrosirius red stained sections, collagen organization [2]: relative consistency in organization of collagen networks
COL1A1 mRNA expression ([3]; TGF-β1 dose): dose-dependent increase in COL1A1
ACTA2 (aSMA) mRNA expression ([3]; TGF-β1 dose and time course): increased expression for the highest concentration of TGF-β1
SERPENE1 (PAI-1) mRNA expression ([3]; TGF-β1 dose and time course): significant time-dependent and dose-dependent increases in expression
tPA (PLAT) mRNA expression [3, 4]: relative downregulation
uPA (PLAU) mRNA expression [3, 4]: relative upregulation
MKI67 mRNA expression (proliferation marker) ([3]; higher concentrations of TGF-β1): significantly upregulated
